Reference: patent US20080200454A1, “CARBON-LINKED TETRAHYDRO-PYRAZOLO-PYRIDINE MODULATORS OF CATHEPSIN S” (priority 2007, published 2008)

Target: Recombinant human cathepsin S (CatS) (Homo sapiens, UniProt P25774)
Test: Recombinant human cathepsin S (CatS) inhibition assay, fluorogenic substrate Z-Valine-Valine-Arginine-AMC;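 also: Baculovirus-expressed CatS in pH 5.0 sodium acetate buffer with DTT and NaCl, fluorescence read each minute over 20 min, inhibition derived from rate slope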
Conditions: not given

Chain of Recombinant human cathepsin S (CatS) (P25774 115-331): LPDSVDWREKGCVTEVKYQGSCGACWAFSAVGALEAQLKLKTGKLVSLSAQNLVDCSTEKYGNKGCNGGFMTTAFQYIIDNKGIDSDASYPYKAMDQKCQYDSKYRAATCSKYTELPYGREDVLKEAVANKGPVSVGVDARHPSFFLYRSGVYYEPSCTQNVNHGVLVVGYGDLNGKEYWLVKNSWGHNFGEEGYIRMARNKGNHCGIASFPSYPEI

IC50	SMILES
910 nM	CS(=O)(=O)N1CCc2c(c(-c3ccc(Cl)c(CCc4cccc(O)c4)c3)nn2CCCN2CCOCC2)C1 [Example 56, 3-(2-{2-Chloro-5-[5-methanesulfonyl-1-(3-morpholin-4-yl-propyl)-4,5,6,7-tetrahydro-1H-pyrazolo[4,3-c]pyridin-3-yl]-phenyl}-ethyl)-phenol]
120 nM	NC(=O)N1CCc2c(c(-c3ccc(Cl)c(C#Cc4ccc(C(=O)NCc5ccc(Cl)cc5)cc4)c3)nn2CCCN2CCSCC2)C1 [Example 547, 3-(4-Chloro-3-{[4-({[(4-chlorophenyl)methyl]amino}carbonyl)phenyl]ethynyl}phenyl)-1-(3-thiomorpholin-4-ylpropyl)-1,4,6,7-tetrahydro-5H-pyrazolo[4,3-c]pyridine-5-carboxamide]
40 nM	CNCCCNC(=O)c1cc(C#Cc2cc(-c3nn(CCCN4CCOC[C@@H]4C)c4c3CN(C(=O)C(N)=O)CC4)ccc2Cl)ccc1Cl [Example 273, (S)-5-(5-{5-Aminooxalyl-1-[3-(3-methyl-morpholin-4-yl)-propyl]-4,5,6,7-tetrahydro-1H-pyrazolo[4,3-c]pyridin-3-yl}-2-chloro-phenylethynyl)-2-chloro-N-(3-methylamino-propyl)-benzamide]
20 nM	C[C@H]1COCCN1CCCn1nc(-c2ccc(Cl)c(C#Cc3ccc(Cl)c(C(=O)NCC4CCCNC4)c3)c2)c2c1CCN(C(=O)C(N)=O)C2 (stereo partly drawn) [Example 587, 5-{[5-(5-[Amino(oxo)acetyl]-1-{3-[(3S)-3-methylmorpholin-4-yl]propyl}-4,5,6,7-tetrahydro-1H-pyrazolo[4,3-c]pyridin-3-yl)-2-chlorophenyl]ethynyl}-2-chloro-N-(piperidin-3-ylmethyl)benzamide]
4650 nM	CS(=O)(=O)N1CCc2c(c(-c3ccc(Cl)c(C#CCN)c3)nn2CCCN2CCC(N3CCCC3=O)CC2)C1 [Example 307, 1-[1-(3-{3-[3-(3-Aminoprop-1-yn-1-yl)-4-chlorophenyl]-5-(methylsulfonyl)-4,5,6,7-tetrahydro-1H-pyrazolo[4,3-c]pyridin-1-yl}propyl)piperidin-4-yl]pyrrolidin-2-one]
1630 nM	O=C(N1CCOCC1)N1CCc2c(c(-c3ccc(Cl)c(C#Cc4ccc(CNCc5ccc(Cl)cc5)cc4)c3)nn2CCCN2CCOCC2)C1 [Example 497, 1-[4-({2-Chloro-5-[5-(morpholin-4-ylcarbonyl)-1-(3-morpholin-4-ylpropyl)-4,5,6,7-tetrahydro-1H-pyrazolo[4,3-c]pyridin-3-yl]phenyl}ethynyl)phenyl]-N-[(4-chlorophenyl)methyl]methanamine]
950 nM	CS(=O)(=O)N1CCc2c(c(-c3ccc(Cl)c(C#Cc4cccc(CO)c4)c3)nn2CCCN2CCOCC2)C1 [Example 6, (3-{2-Chloro-5-[5-methanesulfonyl-1-(3-morpholin-4-yl-propyl)-4,5,6,7-tetrahydro-1H-pyrazolo[4,3-c]pyridin-3-yl]-phenylethynyl}-phenyl)-methanol]
580 nM	CS(=O)(=O)N1CCc2c(c(-c3ccc(Cl)c(C#Cc4ccc(CNCCc5ccccc5)cc4)c3)nn2CCCN2CCOCC2)C1 [Example 316, N-{[4-({2-Chloro-5-[5-(methylsulfonyl)-1-(3-morpholin-4-ylpropyl)-4,5,6,7-tetrahydro-1H-pyrazolo[4,3-c]pyridin-3-yl]phenyl}ethynyl)phenyl]methyl}-2-phenylethanamine]
30 nM	NC(=O)C(=O)N1CCc2c(c(-c3ccc(Cl)c(C#Cc4ccc(Cl)c(CN[C@@H](CO)c5ccccc5)c4)c3)nn2CCCN2CCSCC2)C1 [Example 563, 2-[3-(4-Chloro-3-{[4-chloro-3-({[(1R)-2-hydroxy-1-phenylethyl]amino}methyl)phenyl]ethynyl}phenyl)-1-(3-thiomorpholin-4-ylpropyl)-1,4,6,7-tetrahydro-5H-pyrazolo[4,3-c]pyridin-5-yl]-2-oxoacetamide]
100 nM	NC(=O)C(=O)N1CCc2c(c(-c3ccc(Cl)c(C#Cc4ccc(CNCc5ccc(Cl)cc5)cc4)c3)nn2CCCN2CCC(C(F)(F)F)CC2)C1 [Example 452, 2-[3-(4-Chloro-3-{[4-({[(4-chlorophenyl)methyl]amino}methyl)phenyl]ethynyl}phenyl)-1-{3-[4-(trifluoromethyl)piperidin-1-yl]propyl}-1,4,6,7-tetrahydro-5H-pyrazolo[4,3-c]pyridin-5-yl]-2-oxoacetamide]

Same assay, conditions: CatS IC50

SMILES	IC50
C[C@H]1COCCN1CCCn1nc(-c2ccc(Cl)c(C#Cc3ccc(Cl)c(C(=O)NCCCO)c3)c2)c2c1CCN(C(=O)C(N)=O)C2 [Example 560, 5-{[5-(5-[Amino(oxo)acetyl]-1-{3-[(3S)-3-methylmorpholin-4-yl]propyl}-4,5,6,7-tetrahydro-1H-pyrazolo[4,3-c]pyridin-3-yl)-2-chlorophenyl]ethynyl}-2-chloro-N-(3-hydroxypropyl)benzamide]	20 nM
CS(=O)(=O)N1CCc2c(c(-c3ccc(Cl)c(C#Cc4ccc(CN5CCCCC5)cc4)c3)nn2CCCN2CCOCC2)C1 [Example 79, 3-[4-Chloro-3-(4-piperidin-1-ylmethyl-phenylethynyl)-phenyl]-5-methanesulfonyl-1-(3-morpholin-4-yl-propyl)-4,5,6,7-tetrahydro-1H-pyrazolo[4,3-c]pyridine]	1500 nM
COC(=O)CNCc1cccc(C#Cc2cc(-c3nn(CCCN4CCOCC4)c4c3CN(S(C)(=O)=O)CC4)ccc2Cl)c1 [Example 188, Methyl N-{[3-({2-chloro-5-[5-(methylsulfonyl)-1-(3-morpholin-4-ylpropyl)-4,5,6,7-tetrahydro-1H-pyrazolo[4,3-c]pyridin-3-yl]phenyl}ethynyl)phenyl]methyl}glycinate]	550 nM
C[C@H]1COCCN1CCCn1nc(-c2ccc(Cl)c(C#Cc3ccc4c(c3)CN(C)CC4)c2)c2c1CCN(S(C)(=O)=O)C2 [Example 281, 7-({2-Chloro-5-[1-{3-[(3S)-3-methylmorpholin-4-yl]propyl}-5-(methylsulfonyl)-4,5,6,7-tetrahydro-1H-pyrazolo[4,3-c]pyridin-3-yl]phenyl}ethynyl)-2-methyl-1,2,3,4-tetrahydroisoquinoline]	120 nM
CS(=O)(=O)N1CCc2c(c(-c3ccc(Cl)c(C#Cc4cccnc4)c3)nn2C[C@@H](O)CN2CCC(C3CCNCC3)CC2)C1 [Example 475, (2S)-1-(4,4′-Bipiperidin-1-yl)-3-{3-[4-chloro-3-(pyridin-3-ylethynyl)phenyl]-5-(methylsulfonyl)-4,5,6,7-tetrahydro-1H-pyrazolo[4,3-c]pyridin-1-yl}propan-2-ol]	180 nM
CS(=O)(=O)N1CCc2c(c(-c3ccc(Cl)c(C#Cc4ccc5c(c4)CN[C@H](C(=O)N4CCOCC4)C5)c3)nn2CCCN2CCOCC2)C1 [Example 194, (3S)-7-({2-Chloro-5-[5-(methylsulfonyl)-1-(3-morpholin-4-ylpropyl)-4,5,6,7-tetrahydro-1H-pyrazolo[4,3-c]pyridin-3-yl]phenyl}ethynyl)-3-(morpholin-4-ylcarbonyl)-1,2,3,4-tetrahydroisoquinoline]	20 nM
CS(=O)(=O)N1CCc2c(c(-c3ccc(Cl)c(C#Cc4ccc(CNCC(F)(F)F)cc4)c3)nn2CCCN2CCOCC2)C1 [Example 340, N-{[4-({2-Chloro-5-[5-(methylsulfonyl)-1-(3-morpholin-4-ylpropyl)-4,5,6,7-tetrahydro-1H-pyrazolo[4,3-c]pyridin-3-yl]phenyl}ethynyl)phenyl]methyl}-2,2,2-trifluoroethanamine]	390 nM
COc1ccc(C#Cc2cc(-c3nn(CCCN4CCOCC4)c4c3CN(S(C)(=O)=O)CC4)ccc2Cl)cc1 [Example 32, 3-[4-Chloro-3-(4-methoxy-phenylethynyl)-phenyl]-5-methanesulfonyl-1-(3-morpholin-4-yl-propyl)-4,5,6,7-tetrahydro-1H-pyrazolo[4,3-c]pyridine]	490 nM
CS(=O)(=O)N1CCc2c(c(-c3ccc(Cl)c(C#Cc4ccc5c(c4)CN[C@@H](CO)C5)c3)nn2CCCN2CCOCC2)C1 [Example 201, [(3R)-7-({2-Chloro-5-[5-(methylsulfonyl)-1-(3-morpholin-4-ylpropyl)-4,5,6,7-tetrahydro-1H-pyrazolo[4,3-c]pyridin-3-yl]phenyl}ethynyl)-1,2,3,4-tetrahydroisoquinolin-3-yl]methanol]	190 nM
CS(=O)(=O)N1CCc2c(c(-c3ccc(Cl)c(C#Cc4ccc(CNCc5ccc(Cl)cc5)cc4)c3)nn2CCCN2CCC(O)CC2)C1 [Example 330, 1-{3-[3-(4-Chloro-3-{[4-({[(4-chlorophenyl)methyl]amino}methyl)phenyl]ethynyl}phenyl)-5-(methylsulfonyl)-4,5,6,7-tetrahydro-1H-pyrazolo[4,3-c]pyridin-1-yl]propyl}piperidin-4-ol]	90 nM
CS(=O)(=O)N1CCc2c(c(-c3ccc(Cl)c(C#Cc4cccc(CN)c4)c3)nn2CCCN2CCOCC2)C1 [Example 377, 1-[3-({2-Chloro-5-[5-(methylsulfonyl)-1-(3-morpholin-4-ylpropyl)-4,5,6,7-tetrahydro-1H-pyrazolo[4,3-c]pyridin-3-yl]phenyl}ethynyl)phenyl]methanamine]	470 nM
CC1CCN(CCCn2nc(-c3ccc(Cl)c(C#Cc4ccc(CNCc5ccc(Cl)cc5)cc4)c3)c3c2CCN(S(C)(=O)=O)C3)CC1 [Example 344, 1-{4-[(2-Chloro-5-{1-[3-(4-methylpiperidin-1-yl)propyl]-5-(methylsulfonyl)-4,5,6,7-tetrahydro-1H-pyrazolo[4,3-c]pyridin-3-yl}phenyl)ethynyl]phenyl}-N-[(4-chlorophenyl)methyl]methanamine]	60 nM
C[C@H]1COCCN1CCCn1nc(-c2ccc(Cl)c(C#Cc3ccc4c(c3)CN(C(=O)OC(C)(C)C)CC4)c2)c2c1CCN(S(C)(=O)=O)C2 [Example 467, 1,1-Dimethylethyl 7-({2-chloro-5-[1-{3-[(3S)-3-methylmorpholin-4-yl]propyl}-5-(methylsulfonyl)-4,5,6,7-tetrahydro-1H-pyrazolo[4,3-c]pyridin-3-yl]phenyl}ethynyl)-3,4-dihydroisoquinoline-2(1H)-carboxylate]	260 nM
